Patent US10160755B2 (Plexxikon Inc., priority 2015, dated 2018)
Substitutions are numbered along the chain they refer to.

What was measured:
FLT3-ITD = molecular target: T1, FLT3-ITD (Homo sapiens, UniProt P36888); assay: FLT3-ITD biochemical kinase assay (AlphaScreen)
T1 construct: FLT3-ITD; Invitrogen #PV6190
T1 sequence (P36888 1-993): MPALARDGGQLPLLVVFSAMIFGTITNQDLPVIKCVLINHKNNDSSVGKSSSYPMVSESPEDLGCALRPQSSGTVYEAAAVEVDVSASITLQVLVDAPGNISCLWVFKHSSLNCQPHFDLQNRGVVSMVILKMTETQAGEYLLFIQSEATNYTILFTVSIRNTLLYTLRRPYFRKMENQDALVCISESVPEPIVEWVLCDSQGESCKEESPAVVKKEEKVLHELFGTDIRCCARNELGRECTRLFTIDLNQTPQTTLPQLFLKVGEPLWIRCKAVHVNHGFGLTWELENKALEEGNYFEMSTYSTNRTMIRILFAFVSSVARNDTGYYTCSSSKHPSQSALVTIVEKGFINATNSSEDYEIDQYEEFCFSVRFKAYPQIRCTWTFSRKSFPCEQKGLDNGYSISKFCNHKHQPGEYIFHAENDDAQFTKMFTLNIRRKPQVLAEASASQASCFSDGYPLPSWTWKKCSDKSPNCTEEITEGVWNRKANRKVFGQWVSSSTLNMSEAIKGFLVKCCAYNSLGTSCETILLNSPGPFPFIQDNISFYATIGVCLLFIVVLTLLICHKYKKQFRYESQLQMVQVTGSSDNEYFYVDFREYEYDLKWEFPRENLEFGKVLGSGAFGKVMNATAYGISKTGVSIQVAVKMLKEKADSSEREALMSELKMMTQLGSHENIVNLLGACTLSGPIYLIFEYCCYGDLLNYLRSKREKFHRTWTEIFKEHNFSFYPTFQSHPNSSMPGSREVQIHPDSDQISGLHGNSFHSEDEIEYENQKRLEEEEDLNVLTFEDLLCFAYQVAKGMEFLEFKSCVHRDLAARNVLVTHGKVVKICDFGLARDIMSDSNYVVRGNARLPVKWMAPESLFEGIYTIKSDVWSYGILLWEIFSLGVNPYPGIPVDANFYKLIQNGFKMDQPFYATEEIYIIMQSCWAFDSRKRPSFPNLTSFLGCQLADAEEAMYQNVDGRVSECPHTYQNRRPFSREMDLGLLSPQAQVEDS
Procedure, shortened: (§1)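 Compounds were tested against recombinant enzyme using AlphaScreen detection of tyrosine-phosphorylated biotin-poly(Glu4-Tyr) (30 nM final). The ATP concentration differed by construct: 10 μM for D835Y, 100 μM for ITD.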

c-Kit = c-Kit (Homo sapiens, UniProt P10721); assay: c-Kit biochemical assay (per US 2007/0032519)
Sequence of c-Kit (P10721 26-976): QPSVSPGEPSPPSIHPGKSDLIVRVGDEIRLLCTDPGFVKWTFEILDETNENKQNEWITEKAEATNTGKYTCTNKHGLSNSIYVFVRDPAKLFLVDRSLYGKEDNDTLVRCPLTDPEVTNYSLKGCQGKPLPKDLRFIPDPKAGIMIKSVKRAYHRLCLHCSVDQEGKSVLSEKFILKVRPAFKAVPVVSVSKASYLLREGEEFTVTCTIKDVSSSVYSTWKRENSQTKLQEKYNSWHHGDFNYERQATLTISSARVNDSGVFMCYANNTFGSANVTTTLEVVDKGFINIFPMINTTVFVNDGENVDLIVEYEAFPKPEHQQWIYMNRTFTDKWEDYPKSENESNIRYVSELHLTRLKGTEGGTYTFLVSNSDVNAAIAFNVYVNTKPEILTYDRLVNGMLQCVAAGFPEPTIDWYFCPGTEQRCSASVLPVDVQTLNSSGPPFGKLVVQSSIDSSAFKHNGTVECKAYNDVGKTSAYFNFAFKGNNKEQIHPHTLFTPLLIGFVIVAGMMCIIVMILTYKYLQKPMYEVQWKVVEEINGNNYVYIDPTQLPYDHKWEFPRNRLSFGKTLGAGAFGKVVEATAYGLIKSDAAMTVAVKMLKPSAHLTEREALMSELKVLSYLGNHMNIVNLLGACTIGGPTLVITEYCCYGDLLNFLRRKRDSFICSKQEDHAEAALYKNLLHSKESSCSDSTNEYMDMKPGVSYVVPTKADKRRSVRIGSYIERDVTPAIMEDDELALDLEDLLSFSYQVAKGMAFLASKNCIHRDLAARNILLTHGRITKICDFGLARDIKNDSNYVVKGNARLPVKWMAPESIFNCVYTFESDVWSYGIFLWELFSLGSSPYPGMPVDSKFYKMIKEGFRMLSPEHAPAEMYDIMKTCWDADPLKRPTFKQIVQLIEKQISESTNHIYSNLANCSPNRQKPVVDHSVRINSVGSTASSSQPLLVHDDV
Method: The following Table 2 provides data indicating FLT3 ITD, FLT3 D835Y, and KIT biochemical activity, and BaF3 FLT3 ITD/F69L cellular inhibitory activity for exemplary compounds described in this disclosure. In the table below, activity is provided as follows: +++=0.0001<IC50<1 μM; ++=1 μM<IC50<10 μM, +=10 μM<IC50<200 μM. Assays for the biochemical activity of c-Kit and FMS were conducted according to those assays described in US Patent Application Publication number US 2007/0032519, the disclosure of which is hereby incorporated by reference in its entirety.

FLT3-D835Y = molecular target: T2, FLT3-D835Y (Homo sapiens, UniProt P36888, D835Y); assay: FLT3-D835Y biochemical kinase assay (AlphaScreen)
T2 construct: purchased Invitrogen PV3967
T2 sequence (P36888 27-993 D835Y): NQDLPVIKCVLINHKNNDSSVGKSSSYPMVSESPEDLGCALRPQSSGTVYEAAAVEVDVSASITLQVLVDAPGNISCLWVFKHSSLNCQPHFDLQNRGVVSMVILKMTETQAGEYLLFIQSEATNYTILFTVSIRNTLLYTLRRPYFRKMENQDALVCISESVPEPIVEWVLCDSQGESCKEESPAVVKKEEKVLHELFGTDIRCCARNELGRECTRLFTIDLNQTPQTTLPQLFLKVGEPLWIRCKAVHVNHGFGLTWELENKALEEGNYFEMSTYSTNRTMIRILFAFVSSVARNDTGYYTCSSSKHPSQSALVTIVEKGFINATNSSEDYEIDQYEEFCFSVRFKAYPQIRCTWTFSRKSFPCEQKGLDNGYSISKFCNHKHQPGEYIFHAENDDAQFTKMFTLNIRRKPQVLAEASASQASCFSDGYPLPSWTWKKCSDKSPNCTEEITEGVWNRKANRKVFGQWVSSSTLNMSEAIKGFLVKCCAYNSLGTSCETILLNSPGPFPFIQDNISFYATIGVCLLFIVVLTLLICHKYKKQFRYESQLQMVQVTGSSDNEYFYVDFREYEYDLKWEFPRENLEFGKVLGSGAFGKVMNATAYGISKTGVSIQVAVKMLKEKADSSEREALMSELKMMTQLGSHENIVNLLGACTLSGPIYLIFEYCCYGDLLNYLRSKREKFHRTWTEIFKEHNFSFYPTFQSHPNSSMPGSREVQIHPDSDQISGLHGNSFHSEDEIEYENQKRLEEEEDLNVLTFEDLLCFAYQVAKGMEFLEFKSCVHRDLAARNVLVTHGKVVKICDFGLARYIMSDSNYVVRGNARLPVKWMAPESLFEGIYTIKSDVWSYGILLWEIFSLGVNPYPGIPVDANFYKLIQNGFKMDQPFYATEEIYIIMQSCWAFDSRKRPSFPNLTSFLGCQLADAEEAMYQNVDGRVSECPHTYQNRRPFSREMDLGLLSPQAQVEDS
Procedure, shortened: as §1

[1] = molecular target: T3, BA/F3-FLT3-ITD + F691L cells (Homo sapiens, UniProt P36888, F691L, cells depend on it, form not given); assay: BA/F3-FLT3-ITD + F691L cell proliferation assay (CellTiter-Glo); assay type: cell-based, murine; details: BaF3 FLT3 ITD/F691L cells; read-out: Cell Activity (IC50 μM) BaF3_FLT3_ITD/F691L
T3 sequence (P36888 1-993 F691L): T1 sequence (P36888 1-993) with F691L
From the text: The FLT3 inhibitors may also be assessed using leukemia cell lines that express endogenous FLT3-ITD or cells that are engineered to express wild-type or mutant FLT3. The cells expressing endogenous FLT3 are dependent upon FLT3 catalytic activity for growth. For the engineered cells, murine BA/F3 cells were transfected with full-length FLT3 (either wild-type, or containing the ITD, D835Y, or F691L mutations, as noted). The parental BA/F3 cells are dependent upon Interleukin-3 (IL-3) for survival, and introduction of the FLT3 constructs renders these cells dependent upon FLT3 kinase activity when cultured in the absence of IL-3. Engineered BA/F3 cell growth assays can be performed in either the absence or presence of IL-3, to assess the compound inhibition of FLT3 or to detect the presence of off-target activity, respectively. Inhibitors of FLT3 kinase activity reduce or eliminate the FLT3 oncogenic signaling, resulting in reduced cell proliferation. This inhibition is measured as a function of compound concentration to assess IC50 values.
Cells were seeded at 1×10^4 cells per well of a 96 well cell culture plate in 50 μl of cell culture medium. Compounds were dissolved in DMSO, typically at a concentration of 5 mM and were serially diluted 1:3 for a total of eight points and added to the cells to final concentrations of 10, 3.3, 1.1, 0.37, 0.12, 0.041, 0.014 and 0.0046 μM in 100 μl cell culture medium (final concentration 0.2% DMSO). […] The cells were incubated at 37° C., 5% CO2 for three days. CellTiter-Glo Buffer (Promega Cell Viability Assay catalog #G7573) and substrate were equilibrated to room temperature, and enzyme/substrate Recombinant Firefly Luciferase/Beetle Luciferin was reconstituted. The cell plates were equilibrated to room temperature for 30 minutes, then lysed by addition of an equivalent volume of the Celltiter-Glo Reagent. The plate was mixed for 10 minutes on a plate shaker to lyse the cells. The plates were read on a Tecan M1000 using Luminescence protocol modified to read 0.1 s per well. The luminescence reading assesses the ATP content, which correlates directly with cell number such that the reading as a function of compound concentration was used to determine the IC50 value.

Compound | IC50 (FLT3-ITD) [µM] | IC50 (c-Kit) [µM] | IC50 (FLT3-D835Y) [µM] | GI50 [1] [µM]
COc1cnc2[nH]cc(-c3ccc4ncn(C(C)C)c4c3)c2c1 [P-050, 1-isopropyl-6-(5-methoxy-1H-pyrrolo[2,3-b]pyridin-3-yl)benzimidazole] | 0.0001 to 1 | 10 to 200 |  | 
COc1cnc2[nH]cc(-c3ccc4ncn(C5CCNCC5)c4c3)c2c1 [P-071, 5-methoxy-3-[3-(4-piperidyl)benzimidazol-5-yl]-1H-pyrrolo[2,3-b]pyridine] |  | 10 to 200 | 0.0001 to 1 | 
COc1cc(-c2cnc3[nH]cc(-c4ccc5ncsc5c4)c3n2)ccn1 [P-075, 6-[2-(2-methoxy-4-pyridyl)-5H-pyrrolo[2,3-b]pyrazin-7-yl]-1,3-benzothiazole] |  | 10 to 200 | 0.0001 to 1 | 
COc1cnc2[nH]cc(-c3ccc4ncn(Cc5ccccc5)c4c3)c2c1 [P-073, 1-benzyl-6-(5-methoxy-1H-pyrrolo[2,3-b]pyridin-3-yl)benzimidazole] |  | 1 to 10 | 0.0001 to 1 | 
Cc1cc2[nH]cnc2cc1-c1c[nH]c2ncccc12 [P-025, 6-methyl-5-(1H-pyrrolo[2,3-b]pyridin-3-yl)-1H-benzimidazole] |  | 10 to 200 | 1 to 10 | 
COc1cnc2[nH]cc(-c3cc4nc[nH]c4cc3C)c2c1 [P-026, 5-methoxy-3-(6-methyl-1H-benzimidazol-5-yl)-1H-pyrrolo[2,3-b]pyridine] |  | 10 to 200 | 1 to 10 | 
COc1cnc2[nH]cc(-c3ccc4ncn(C5CCCCC5)c4c3)c2c1 [P-072, 1-cyclohexyl-6-(5-methoxy-1H-pyrrolo[2,3-b]pyridin-3-yl)benzimidazole] |  | 1 to 10 | 0.0001 to 1 | 
COc1cnc2[nH]cc(-c3ccc4ncn(C5CCNC5)c4c3)c2c1 (centres unmarked) [P-067, 5-methoxy-3-(3-pyrrolidin-3-ylbenzimidazol-5-yl)-1H-pyrrolo[2,3-b]pyridine] |  | 10 to 200 | 0.0001 to 1 | 

Further lines, results first:

IC50 (FLT3-ITD) [µM] | IC50 (c-Kit) [µM] | IC50 (FLT3-D835Y) [µM] | GI50 [1] [µM] | Compound
 | 1 to 10 | 0.0001 to 1 |  | CS(=O)(=O)Nc1ccc(-c2cnc3[nH]cc(-c4ccc5ncsc5c4)c3n2)cc1 [P-076, N-[4-[7-(1,3-benzothiazol-6-yl)-5H-pyrrolo[2,3-b]pyrazin-2-yl]phenyl]methanesulfonamide]
 | 1 to 10 | 0.0001 to 1 |  | Cn1cc(-c2cnc3[nH]cc(-c4ccc5ncn(C)c5c4)c3c2)ccc1=O [P-118, 1-methyl-5-[3-(3-methylbenzimidazol-5-yl)-1H-pyrrolo[2,3-b]pyridin-5-yl]pyridin-2-one]
0.0001 to 1 |  |  | 0.0001 to 1 | CN1CCN(c2ccc(-c3cnc4[nH]cc(-c5ccc6ncn(C7CCCNC7)c6c5)c4n3)cn2)CC1 (centres unmarked) [P-334, 2-[6-(4-methylpiperazin-1-yl)-3-pyridyl]-7-[3-(3-piperidyl)benzimidazol-5-yl]-5H-pyrrolo[2,3-b]pyrazine]
 | 10 to 200 | 0.0001 to 1 |  | CNS(=O)(=O)c1ccc(-c2cnc3[nH]cc(-c4ccc5ncsc5c4)c3n2)cc1 [P-078, 4-[7-(1,3-benzothiazol-6-yl)-5H-pyrrolo[2,3-b]pyrazin-2-yl]-N-methyl-benzenesulfonamide]
 | 1 to 10 | 0.0001 to 1 |  | COc1ccc(-c2cnc3[nH]cc(-c4ccc5ncsc5c4)c3n2)cn1 [P-077, 6-[2-(6-methoxy-3-pyridyl)-5H-pyrrolo[2,3-b]pyrazin-7-yl]-1,3-benzothiazole]
